Laboratory results: US20260109707A1, “HETEROBIFUNCTIONAL COMPOUNDS AND METHODS OF TREATING DISEASE” (Halda Therapeutics OpCo. Inc., priority 2022, published 2026)
Like-named read-outs stand apart in the source and are kept apart here.

How the values were obtained:
[1] = tested on: T-Rex 293 cell line SC3 cells having increased expression of androgen receptor protein due to exposure to doxycycline; assay: Cellular growth inhibition assay, T-Rex 293 SC3 cells with doxycycline (CellTiter-Glo, 72 hours); type: cell-based; settings: T-Rex 293 SC3 cells with increased androgen receptor expression due to doxycycline (10 ng/mL)
In short: (§1)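 Doxycycline (10 ng/mL) was either included or omitted to toggle wild-type androgen receptor expression in SC3 cells, a T-Rex 293 clone, grown in stripped-serum, phenol red-free medium. After 72 hours with compound, viable cells were quantified by CellTiter-Glo 2.0.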

T47D cells = assay: Cellular growth inhibition assay for T47D cells (CellTiter-Glo, 72 hours); type: cell-based, human; settings: 72 hours treatment
In short: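 Cells are plated at 3000/well and allowed 24 h before treatment. Test compound in medium containing 0.5% DMSO is then added, with DMSO-only wells as negative control, and plates are incubated 72 h at 37 °C. ATP luminescence (CellTiter-Glo 2.0) is then fitted to four parameters to derive GI50.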

[2] = tested on: T-Rex 293 cell line SC3 cells lacking increased expression of androgen receptor protein; assay: Cellular growth inhibition assay, T-Rex 293 SC3 cells without doxycycline (CellTiter-Glo, 72 hours); type: cell-based; settings: T-Rex 293 cell line SC3 cells not exposed to doxycycline (lacking increased androgen receptor expression)
In short: as §1

VCaP cells = assay: Cellular growth inhibition assay for VCaP cells (CellTiter-Glo, 72 hours); type: cell-based, human
In short: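 Luminescent viability signal after 72 h of compound exposure gave GI50 values by four-parameter nonlinear regression. Compounds were added in 0.5% DMSO to cells plated 24 h earlier at 5000/well in DMEM containing 10% FBS.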

GI50 (T47D cells; Homo sapiens, T47D, 72 h) [nM]	GI50 (VCaP cells; Homo sapiens, VCaP, 72 h) [nM]	GI50 (T47D cells) [nM]	GI50 (VCaP cells) [nM]	Structure (SMILES)	GI50 ([1]; 72 h) [nM]	GI50 ([2]; 72 h) [nM]	GI50 [2] [nM]	GI50 [1] [nM]
< 500	< 500	–	–	Cc1sc2c(c1C)C(c1ccc(C[C@H]3CCC4CN(c5ccc(C(=O)N[C@H]6CC[C@H](Oc7ccc(C#N)c(Cl)c7)CC6)nn5)CCN4C3)cc1)=N[C@H](Cc1ncco1)c1nnc(C)n1-2 (stereo partly drawn) [I-260]	< 500	< 500	–	–
< 500	< 500	–	–	Cc1sc2c(c1C)C(c1ccc(O[C@H]3C[C@@]4(CCCN(c5ccc(C(=O)N[C@H]6CC[C@H](Oc7ccc(C#N)c(Cl)c7)CC6)nn5)C4)C3)cn1)=N[C@@H](Cc1ncco1)c1nnc(C)n1-2 [I-261]	< 500	< 500	–	–
< 500	< 500	–	–	Cc1sc2c(c1C)C(c1ccc(OC[C@H]3C[C@]4(CCCN(c5ccc(C(=O)N[C@H]6CC[C@H](Oc7ccc(C#N)c(Cl)c7)CC6)nn5)C4)C3)nc1)=N[C@@H](Cc1ncco1)c1nnc(C)n1-2 [I-262]	< 500	> 3000	–	–
500 to 1500	< 500	–	–	Cc1sc2c(c1C)C(c1ccc(OC[C@H]3C[C@@]4(CCCN(c5ccc(C(=O)N[C@H]6CC[C@H](Oc7ccc(C#N)c(Cl)c7)CC6)nn5)C4)C3)nc1)=N[C@@H](Cc1ncco1)c1nnc(C)n1-2 [I-263]	< 500	> 3000	–	–
< 500	< 500	–	–	Cc1sc2c(c1C)C(c1ccc(C[C@H]3CC[C@]4(C3)CN(c3ccc(C(=O)N[C@H]5CC[C@H](Oc6ccc(C#N)c(Cl)c6)CC5)nn3)CCO4)cc1)=N[C@@H](Cc1ncco1)c1nnc(C)n1-2 [I-266]	< 500	< 500	–	–
< 500	< 500	–	–	Cc1sc2c(c1C)C(c1ccc(C[C@H]3CC[C@@]4(C3)CN(c3ccc(C(=O)N[C@H]5CC[C@H](Oc6ccc(C#N)c(Cl)c6)CC5)nn3)CCO4)cc1)=N[C@@H](Cc1ncco1)c1nnc(C)n1-2 [I-267]	< 500	< 500	–	–
1500 to 3000	1500 to 3000	–	–	Cc1sc2c(c1C)C(c1ccc(C(=O)N3CC[C@]4(CCCN(c5ccc(C(=O)N[C@H]6CC[C@H](Oc7ccc(C#N)c(Cl)c7)CC6)nn5)C4)C3)cc1)=N[C@H](Cc1ncco1)c1nnc(C)n1-2 [I-272]	< 500	> 3000	–	–
> 3000	> 3000	–	–	Cc1sc2c(c1C)C(c1ccc(C(=O)N3CCC[C@@H](Cc4ccc(C(=O)N[C@H]5CC[C@H](Oc6ccc(C#N)c(Cl)c6)CC5)nn4)C3)cc1)=N[C@H](Cc1ncco1)c1nnc(C)n1-2 [I-275]	< 500	> 3000	–	–
< 500	< 500	–	–	Cc1sc2c(c1C)C(c1ccc(CCC[C@@H]3CCCN(c4ccc(C(=O)N[C@H]5CC[C@H](Oc6ccc(C#N)c(Cl)c6)CC5)nn4)C3)cc1)=N[C@@H](Cc1ncco1)c1nnc(C)n1-2 [I-276]	< 500	< 500	–	–
< 500	< 500	–	–	Cc1sc2c(c1C)C(c1ccc(CCC[C@H]3CCCN(c4ccc(C(=O)N[C@H]5CC[C@H](Oc6ccc(C#N)c(Cl)c6)CC5)nn4)C3)cc1)=N[C@@H](Cc1ncco1)c1nnc(C)n1-2 [I-277]	< 500	< 500	–	–
< 500	< 500	–	–	Cc1sc2c(c1C)C(c1ccc(CCO[C@@H]3CCCN(c4ccc(C(=O)N[C@H]5CC[C@H](Oc6ccc(C#N)c(Cl)c6)CC5)nn4)C3)cc1)=N[C@@H](Cc1ncco1)c1nnc(C)n1-2 [I-278]	< 500	> 3000	–	–
500 to 1500	< 500	–	–	Cc1sc2c(c1C)C(c1ccc(CCO[C@H]3CCCN(c4ccc(C(=O)N[C@H]5CC[C@H](Oc6ccc(C#N)c(Cl)c6)CC5)nn4)C3)cc1)=N[C@@H](Cc1ncco1)c1nnc(C)n1-2 [I-279]	< 500	< 500	–	–
< 500	< 500	–	–	Cc1sc2c(c1C)C(c1ccc(C#CC3CC4(C3)CN(c3ccc(C(=O)N[C@H]5CC[C@H](Oc6ccc(C#N)c(Cl)c6)CC5)nn3)C4)cn1)=N[C@H](Cc1ncco1)c1nnc(C)n1-2 [I-281]	< 500	< 500	–	–
500 to 1500	< 500	–	–	Cc1sc2c(c1C)C(c1ccc(O[C@@H]3CC[C@]4(CCCN(c5ccc(C(=O)N[C@H]6CC[C@H](Oc7ccc(C#N)c(Cl)c7)CC6)nn5)C4)C3)nc1)=N[C@@H](Cc1ncco1)c1nnc(C)n1-2 [I-284]	< 500	–	< 500	–
–	< 500	1500 to 3000	–	Cc1sc2c(c1C)C(c1ccc(O[C@@H]3CC[C@@]4(CCCN(c5ccc(C(=O)N[C@H]6CC[C@H](Oc7ccc(C#N)c(Cl)c7)CC6)nn5)C4)C3)nc1)=N[C@@H](Cc1ncco1)c1nnc(C)n1-2 [I-285]	< 500	–	> 3000	–
–	–	500 to 1500	< 500	Cc1sc2c(c1C)C(c1ccc(O[C@@H]3CC[C@]4(CCCN(c5ccc(C(=O)N[C@H]6CC[C@H](Oc7ccc(C#N)c(Cl)c7)CC6)nn5)C4)C3)nc1)=N[C@@H](Cc1ncco1)c1nnc(C)n1-2 [I-286]	–	–	> 3000	< 500
–	–	500 to 1500	< 500	Cc1sc2c(c1C)C(c1ccc(O[C@@H]3CC[C@@]4(CCCN(c5ccc(C(=O)N[C@H]6CC[C@H](Oc7ccc(C#N)c(Cl)c7)CC6)nn5)C4)C3)nc1)=N[C@@H](Cc1ncco1)c1nnc(C)n1-2 [I-287]	–	–	< 500	< 500
< 500	< 500	–	–	Cc1sc2c(c1C)C(c1ccc(C[C@@H]3CC[C@]4(C3)CN(c3ccc(C(=O)N[C@H]5CC[C@H](Oc6ccc(C#N)c(Cl)c6)CC5)nn3)CCO4)cc1)=NC(Cc1ncco1)c1nnc(C)n1-2 (stereo partly drawn) [I-288]	< 500	< 500	–	–
1500 to 3000	1500 to 3000	–	–	Cc1sc2c(c1C)C(c1ccc(CNC(=O)NCc3ccc(C(=O)N[C@H]4CC[C@H](Oc5ccc(C#N)c(Cl)c5)CC4)nn3)cc1)=N[C@@H](Cc1ncco1)c1nnc(C)n1-2 [I-289]	< 500	> 3000	–	–
> 3000	> 3000	–	–	Cc1sc2c(c1C)C(c1ccc(C(=O)N3CCN(Cc4ccc(C(=O)N[C@H]5CC[C@H](Oc6ccc(C#N)c(Cl)c6)CC5)nn4)CC3)cc1)=N[C@@H](Cc1ncco1)c1nnc(C)n1-2 [I-290]	> 3000	> 3000	–	–
> 3000	> 3000	–	–	Cc1sc2c(c1C)C(c1ccc(C(=O)N3CCN(Cc4ccc(C(=O)N[C@H]5CC[C@H](Oc6ccc(C#N)c(Cl)c6)CC5)nn4)CC3)cc1)=N[C@H](Cc1ncco1)c1nnc(C)n1-2 [I-291]	< 500	> 3000	–	–
< 500	< 500	–	–	Cc1sc2c(c1C)C(c1ccc(N3CCC(C(=O)NCc4ccc(C(=O)N[C@H]5CC[C@H](Oc6ccc(C#N)c(Cl)c6)CC5)nn4)CC3)cc1)=N[C@@H](Cc1ncco1)c1nnc(C)n1-2 [I-292]	< 500	500 to 1500	–	–
500 to 1500	< 500	–	–	Cc1sc2c(c1C)C(c1ccc(CCNC(=O)NCc3ccc(C(=O)N[C@H]4CC[C@H](Oc5ccc(C#N)c(Cl)c5)CC4)nn3)cc1)=N[C@@H](Cc1ncco1)c1nnc(C)n1-2 [I-293]	< 500	> 3000	–	–
< 500	< 500	–	–	Cc1sc2c(c1C)C(c1ccc(N3CCC[C@H](C(=O)NCc4ccc(C(=O)N[C@H]5CC[C@H](Oc6ccc(C#N)c(Cl)c6)CC5)nn4)C3)cc1)=N[C@@H](Cc1ncco1)c1nnc(C)n1-2 [I-294]	< 500	> 3000	–	–
1500 to 3000	> 3000	–	–	Cc1sc2c(c1C)C(c1ccc(N3CCC[C@H](C(=O)NCc4ccc(C(=O)N[C@H]5CC[C@H](Oc6ccc(C#N)c(Cl)c6)CC5)nn4)C3)cc1)=N[C@H](Cc1ncco1)c1nnc(C)n1-2 [I-295]	500 to 1500	> 3000	–	–
500 to 1500	< 500	–	–	Cc1sc2c(c1C)C(c1ccc([C@H]3CCCCN3C(=O)[C@H]3CCCN(c4ccc(C(=O)N[C@H]5CC[C@H](Oc6ccc(C#N)c(Cl)c6)CC5)nn4)C3)cc1)=N[C@@H](Cc1ncco1)c1nnc(C)n1-2 [I-296]	< 500	> 3000	–	–
500 to 1500	< 500	–	–	Cc1sc2c(c1C)C(c1ccc([C@@H]3CCCCN3C(=O)[C@H]3CCCN(c4ccc(C(=O)N[C@H]5CC[C@H](Oc6ccc(C#N)c(Cl)c6)CC5)nn4)C3)cc1)=N[C@@H](Cc1ncco1)c1nnc(C)n1-2 [I-297]	< 500	> 3000	–	–
< 500	< 500	–	–	Cc1sc2c(c1C)C(c1ccc(CN3CCO[C@@H](CNc4ccc(C(=O)N[C@H]5CC[C@H](Oc6ccc(C#N)c(Cl)c6)CC5)nn4)C3)cc1)=N[C@@H](Cc1ncco1)c1nnc(C)n1-2 [I-298]	< 500	< 500	–	–
1500 to 3000	< 500	–	–	Cc1sc2c(c1C)C(c1ccc(CN(C)C(=O)CN(C)c3ccc(C(=O)N[C@H]4CC[C@H](Oc5ccc(C#N)c(Cl)c5)CC4)nn3)cc1)=N[C@@H](Cc1ncco1)c1nnc(C)n1-2 [I-299]	1500 to 3000	> 3000	–	–
500 to 1500	< 500	–	–	Cc1sc2c(c1C)C(c1ccc(CNC(=O)Cc3ccc(C(=O)N[C@H]4CC[C@H](Oc5ccc(C#N)c(Cl)c5)CC4)nn3)cc1)=N[C@@H](Cc1ncco1)c1nnc(C)n1-2 [I-300]	500 to 1500	> 3000	–	–
